# Test results as given in patent EP3970691A1, “SLIMMING COSMETIC COMPOSITIONS CONTAINING ONE OR MORE LIMONOIDS” (C.F.E.B. Sisley, priority 2020, dated 2022).
# Experiments:
# Assay type in all cases: cell-based
# pré-adipocytes humains = experiment: RT-qPCR gene expression in differentiating human pre-adipocytes; details: treated during induction phase
# Procedure: Comme pour les 3T3-L1, le protocole de différenciation des PrAH se déroule en deux étapes : les cellules sont exposées à milieu d'induction puis à un milieu d'accumulation, ces deux phases durant 10 jours chacune.
# Le milieu d'induction est composé du milieu d'entretien supplémenté de l'insuline à 1µM, de l'IBMX à 500µM, de la dexaméthasone à 1µM ainsi que de l'indométhacine à 200µM. Le milieu d'accumulation est quant à lui composé du milieu d'entretien auquel on ajoute de l'insuline à 1µM.
# (§1) L'extraction des ARNm à partir de ces échantillons est réalisée avec un kit RNeasy® Mini Kit, commercialisé par QIAGEN®.
# (§2) La rétrotranscription des ARN extraits des échantillons en ADNc est réalisée selon le protocole suivant : les ARN sont incubés à 50°C pendant 30 minutes afin de réaliser la rétro-transcription des ARN en présence de la réversetranscriptase M-MLV; puis à 95°C pendant 15 minutes afin d'inhiber l'activité de la rétrotranscriptase, de dégrader les amorces d'ARN et d'activer la polymérase.
# (§3) La PCR quantitative est réalisée dans Le LightCylcer 1.5 (Roche) grâce au kit FastStart DNA Master plus SYBR Green I (Roche).
# Dans un premier temps, les cellules ont donc été traitées avec de la Gédunine durant la phase d'induction. Le niveau d'expression de gènes impliqués dans l'adipogenèse et dans la fonction adipocytaire a été évalué. Dans un deuxième temps, les cellules ont été colorées avec de l'Huile Rouge afin de visualiser leur capacité à stocker des lipides au sein de leurs gouttelettes lipidiques.
# CERT [1] = molecular target: T1, CERT (Mus musculus, UniProt Q9EQG9); experiment: Total ceramides and sphingomyelins during 3T3-L1 differentiation under gedunin treatment
# T1 construct: endogenous in cells; host or cells: 3T3-L1
# T1 sequence (Q9EQG9 1-624): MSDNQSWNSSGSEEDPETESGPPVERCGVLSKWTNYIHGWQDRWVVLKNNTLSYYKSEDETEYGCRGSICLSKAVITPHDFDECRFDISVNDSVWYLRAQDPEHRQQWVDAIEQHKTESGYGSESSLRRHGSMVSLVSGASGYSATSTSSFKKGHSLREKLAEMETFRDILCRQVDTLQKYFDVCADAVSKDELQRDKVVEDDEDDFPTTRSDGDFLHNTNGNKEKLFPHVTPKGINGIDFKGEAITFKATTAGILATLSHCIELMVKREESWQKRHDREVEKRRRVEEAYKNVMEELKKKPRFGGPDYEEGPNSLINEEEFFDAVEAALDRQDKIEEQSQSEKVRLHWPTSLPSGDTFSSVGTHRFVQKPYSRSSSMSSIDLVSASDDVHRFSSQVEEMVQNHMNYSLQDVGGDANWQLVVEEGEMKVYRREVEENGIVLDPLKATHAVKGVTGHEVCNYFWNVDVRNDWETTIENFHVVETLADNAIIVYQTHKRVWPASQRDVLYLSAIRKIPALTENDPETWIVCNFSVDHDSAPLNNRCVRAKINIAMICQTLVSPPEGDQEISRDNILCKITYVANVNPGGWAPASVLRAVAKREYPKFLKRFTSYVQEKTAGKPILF
# Procedure: (§4) Le protocole de différenciation se déroule en deux étapes : une phase d'induction (2 jours) suivie d'une étape d'accumulation (2 à 5 jours). • Milieu d'induction : Il s'agit du milieu d'entretien des 3T3-L1 supplémenté de 1µM d'Insuline; 1.25µM de Dexaméthasone et 250µM d' IBMX (3-isobutyl-1-methylxanthine) • Cocktail d'accumulation : Ce milieu est composé du milieu d'entretien des 3T3-L1 supplémenté de 1µM d'Insuline ;
# Les lipides ont été extraits et les échantillons préparés pour la chromatographie liquide couplée à la spectrométrie de masse (cf. Bligh E.G. et al, 1959).
# (§5) Les taux de céramides dans les extraits de lipides cellulaires sont mesurés par la méthode enzymatique de la DAG kinase. Le principe de ce dosage est de phosphoryler les céramides avec de l'ATP radiomarqué grâce à l'action de cette enzyme, puis de quantifier les radiations obtenues pour chaque échantillons, permettant ainsi de doser la quantité totale de céramides présents initialement dans les échantillons. Les résultats sont exprimés en fmol de céramides et normalisés par rapport à la quantité de phospholipides totaux dans les échantillons, exprimée en nmol.
# (§6) La quantité de phospholipides totaux contenue dans les extraits cellulaires est dosée afin de normaliser les céramides présents dans chaque échantillon. La quantité de phospholipides totaux est mesurée par spectrophotométrie : l'absorbance est mesurée à 660 nm, puis calculée grâce à une gamme de sodium phosphate dibasique (Sigma-Aldrich) permettant de déterminer la concentration en phosphates dans chaque échantillon.
# Afin de déterminer si la GED est capable d'inhiber le transport des céramides du RE vers le Golgi au cours du processus de différenciation des 3T3-L1, ces cellules ont été mises en contact de la GED au cours des deux phases du protocole (Schéma 3). Puis les céramides totaux et les sphingomyélines ont été quantifiés (figure 2A).
# CERT [2] = molecular target: T1, CERT; experiment: Dose-response on basal 3T3-L1: total ceramide assay (DAG kinase) as readout of CERT inhibition; details: 3T3-L1 in basal state, total ceramides; data not shown
# Text: as §5, §6
# 3T3-L1 [3] = experiment: Oil Red staining of lipid droplets in 3T3-L1 (microscopy); details: AdJ7, 10µM in induction (GED1) or accumulation (GED2) phase
# Text: Afin de visualiser les gouttelettes lipidiques contenues dans les adipocytes matures et donc de quantifier le niveau de différenciation des cellules, les lipides sont marqués avec de l'huile rouge. L'huile rouge est un colorant liposoluble qui colore les lipides neutres et donc les triglycérides stockés dans les gouttelettes.
# (§7) L'inhibition de CERT, et donc de la synthèse de SM, par le traitement à la GED ayant été validée, la question a donc ensuite été de savoir si cela avait un effet sur la capacité de différenciation des cellules. Le même protocole de différenciation a donc été appliqué, associé ou non à un traitement à la Ged (figure 2A), et les niveaux d'expression de gènes impliqués d'une part dans l'adipogenèse et d'autre part dans la fonction adipocytaire ont été mesurés. Par ailleurs, les analyses transcriptomiques ont été combinées avec une analyse phénotypique des échantillons : un marquage à l'huile rouge, qui, en marquant les lipides, permet de visualiser les gouttelettes lipidiques dans les cellules et donc de savoir si celles-ci sont différenciées et fonctionnelles.
# 3T3-L1 [4] = experiment: RT-qPCR expression of adipogenesis and adipocyte function genes during 3T3-L1 differentiation
# Procedure: as §4, §1, §2, §3, §7
# Les niveaux d'expression des gènes Pref1, comme marqueur pré-adipocytaire, ainsi que de PPARγ, C/EBPα et C/EBPδ qui sont des FT clés dans l'adipogenèse, ont été mesurés.
# 3T3-L1 [5] = experiment: Oil Red O neutral lipid quantification (spectrophotometry) in differentiating 3T3-L1; details: for quantité de lipides: vs control
# Text: Brièvement : Des cellules 3T3-L1 ont été ensemencés dans leur milieu d'entretien. A confluence, les cellules ont été mises au contact des produits à tester dans un milieu permettant la différentiation des pré-adipocytes en adipocytes via la présence d'un cocktail d'induction. A l'issue du contact, les lipides neutres stockés dans les gouttelettes lipidiques des adipocytes ont été marqués par la coloration Huile Rouge O. Les lipides neutres ont été extraits (extraction à l'isopropanol) et dosés par spectrophotométrie. Les densités optiques obtenues sont proportionnelles à la quantité de lipides.
# [6] = GED1 and GED2, stage AdJ7, vs CTRL
structure (smiles),measurement,setting,value
"CC(=O)O[C@@H]1C[C@H]2C(C)(C)C(=O)C=C[C@]2(C)[C@H]2CC[C@@]3(C)[C@H](c4ccoc4)OC(=O)[C@H]4O[C@]43[C@@]21C [Gédunine, gédunine]",expression du marqueur pré-adipocytaire Pref1,pré-adipocytes humains; CTRL vs GED,aucune différence significative
same,"expressions de AdipoQ, FAS et LPL",pré-adipocytes humains; vs CTRL,"diminution des expressions de AdipoQ, FAS et LPL"
same,induction de l'expression de PPARγ,pré-adipocytes humains; vs CTRL,fortement diminuée
same,céramides totaux,"CERT [1]; 3T3-L1, 10µM in induction phase, then control accumulation medium without GED",ne présentent pas d'accumulation des céramides
same,céramides totaux,"CERT [1]; 3T3-L1, 10µM, AdJ2 treated in induction phase and AdJ7 treated in accumulation phase, vs control",accumulation des céramides significative
same,accumulation de SM,"CERT [1]; 3T3-L1, 10µM, after 5 days of accumulation, treatment in first or second step",diminuer significativement l'accumulation de SM
same,quantité de SM,"CERT [1]; 3T3-L1, 10µM, early stage, just before accumulation step","légère diminution de la quantité de SM, toutefois non significative"
same,dose de GED à partir de laquelle les céramides commencent à s'accumuler,CERT [2],≥ 10 µM
same,marquage des lipides neutres par l'huile rouge,3T3-L1 [3],ne sont plus marquées
same,expression de PPARγ,3T3-L1 [4]; 10µM in accumulation phase,diminution drastique de l'induction de l'expression de PPARγ
same,"expression de CD36, FAS, LPL et adiponectine","3T3-L1 [4]; 10µM in induction or accumulation phase, stages AdJ2 and AdJ7",diminue l'induction de l'expression de ces 4 gènes
same,expression de PPARγ,"3T3-L1 [4]; 10µM in induction phase, stages AdJ2 and AdJ7",diminution de cette induction de l'expression de PPARγ
same,expression de C/EBPδ,"3T3-L1 [4]; 10µM, stage AdJ2","semble diminuer, toutefois non-significativement"
same,"expression de CD36, FAS, LPL et adiponectine",3T3-L1 [4]; AdJ7 GED2 (10µM in accumulation phase),diminution drastique
same,expression de Pref1,"3T3-L1 [4]; GED1 (10µM in induction phase), stage AdJ2",diminue de la même manière que chez les CTRL
same,expression de Pref1,"3T3-L1 [4]; GED1 (10µM in induction phase), stage AdJ7",n'est plus réprimé
same,expression de C/EBPα,3T3-L1 [4]; [6],diminuée
same,niveau d'expression de C/EBPδ,3T3-L1 [4]; [6],significativement augmenté
same,expression de Pref1,"3T3-L1 [4]; GED2 (10µM in accumulation phase), stage AdJ7",identique à celle des CTRL
"CC1(C)O[C@H]2CC(=O)OC[C@]23[C@H]2CC[C@@]4(C)[C@H](c5ccoc5)OC(=O)[C@H]5O[C@]54[C@]2(C)C(=O)C[C@@H]13 [Limonine, limonine]",% variation versus contrôle,3T3-L1 [5]; Limonine 10µM,-10%
same,Moyenne ± écart type (Densité optique à 490nm),3T3-L1 [5]; Limonine 10µM,"0,492 ± 0,061"
same,% variation versus contrôle,3T3-L1 [5]; Limonine 2OµM,"-16,5%"
same,Moyenne ± écart type (Densité optique à 490nm),3T3-L1 [5]; Limonine 2OµM,"0,455 ± 0,037"
same,cytotoxicité,"3T3-L1 [5]; limonin experiment, tested concentrations (10 and 20 µM)",Aucune cytotoxicité
same,quantité de lipides,3T3-L1 [5]; limonin experiment,baisse dose dépendante de la quantité de lipides
same,quantité de lipides,3T3-L1 [5]; mandarin extract experiment,baisse dose dépendante de la quantité de lipides
